Laboratory results published in PubChem BioAssay AID1845201 (Molecular Pharmacology Branch, DTP, NCI, 2023).

System: COR L88 complex tumor spheroid viability
Assay: Anticancer human tumor COR L88 cell line growth inhibition;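 further: compound exposure lasted 7 days before viability readout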;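 on viability, T/C: percent of DMSO vehicle-treated spheroids = 100%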
Details: for IC50: curve of first compound; for viability, T/C: stronger effect = lower value; active means viability on the fitted dose curve at most 10% of control; inactive means the rest
Method in brief: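 Complex tumor spheroids combined malignant cells with endothelial cells and mesenchymal stem cells. DNA-damaging drugs and DNA repair inhibitors were tested alone and in combination, at half-log dilutions down from clinical Cmax (top 10 microM if Cmax unknown), 0.25% DMSO final.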

Cc1sc2c(c1C)C(c1ccc(Cl)cc1)=NC(CC(=O)Nc1ccc(O)cc1)c1nnc(C)n1-2 (stereo not given) + COc1cc2c(cc1O)CCNC21CSC2c3c(OC(C)=O)c(C)c4c(c3C(COC1=O)N1C(O)C3Cc5cc(C)c(OC)c(O)c5C(C21)N3C)OCO4
455 nM: IC50 (second compound 30 pM)
104 nM: IC50 (second compound 0.000949 µM)
< 9.49 nM: IC50 (second compound 0.003 µM)
464 nM: IC50 (second compound 0.0003 µM)
inactive: viability, T/C (second compound 30 pM, first compound 0.00949 µM) 92.5% | viability, T/C (second compound 30 pM, first compound 0.03 µM) 90.9% | viability, T/C (second compound 30 pM, first compound 0.0949 µM) 101% | viability, T/C (second compound 30 pM, first compound 0.3 µM) 65.3% | viability, T/C (second compound 30 pM, first compound 0.949 µM) 23.6% | viability, T/C (second compound 30 pM, first compound 3 µM) 14.8% | viability, T/C (second compound 94.9 pM, first compound 0.00949 µM) 92.6% | viability, T/C (second compound 94.9 pM, first compound 0.03 µM) 96.5% | viability, T/C (second compound 94.9 pM, first compound 0.0949 µM) 94.2% | viability, T/C (second compound 94.9 pM, first compound 0.3 µM) 55.3% | viability, T/C (second compound 94.9 pM, first compound 0.949 µM) 33.5% | viability, T/C (second compound 94.9 pM, first compound 3 µM) 14.1% | viability, T/C (second compound 0.0003 µM, first compound 0.00949 µM) 76.1% | viability, T/C (second compound 0.0003 µM, first compound 0.03 µM) 118% | viability, T/C (second compound 0.0003 µM, first compound 0.0949 µM) 122% | viability, T/C (second compound 0.0003 µM, first compound 0.3 µM) 72.6% | viability, T/C (second compound 0.0003 µM, first compound 0.949 µM) 15.1% | viability, T/C (second compound 0.000949 µM, first compound 0.00949 µM) 87.4% | viability, T/C (second compound 0.000949 µM, first compound 0.03 µM) 84.6% | viability, T/C (second compound 0.000949 µM, first compound 0.0949 µM) 54%
432 nM: IC50 (second compound 94.9 pM)
active: viability, T/C (second compound 0.0003 µM, first compound 3 µM) 3.51% | viability, T/C (second compound 0.000949 µM, first compound 0.3 µM) 5.62% | viability, T/C (second compound 0.000949 µM, first compound 0.949 µM) 1.33% | viability, T/C (second compound 0.000949 µM, first compound 3 µM) 0.42% | viability, T/C (second compound 0.003 µM, first compound 0.00949 µM) 0.68% | viability, T/C (second compound 0.003 µM, first compound 0.03 µM) 0.7% | viability, T/C (second compound 0.003 µM, first compound 0.0949 µM) 0.6% | viability, T/C (second compound 0.003 µM, first compound 0.3 µM) 0.57% | viability, T/C (second compound 0.003 µM, first compound 0.949 µM) 0.69% | viability, T/C (second compound 0.003 µM, first compound 3 µM) 1.49%

[2H]c1nc(C)nc([2H])c1-c1cc(NC[C@@H](C)c2cccc3c(C(=O)NC)ccnc23)ncn1 + COc1cc2c(cc1O)CCNC21CSC2c3c(OC(C)=O)c(C)c4c(c3C(COC1=O)N1C(O)C3Cc5cc(C)c(OC)c(O)c5C(C21)N3C)OCO4
active: viability, T/C (second compound 0.003 µM, first compound 0.0316 µM) 0.64% | viability, T/C (second compound 0.003 µM, first compound 0.1 µM) 0.73% | viability, T/C (second compound 0.003 µM, first compound 0.316 µM) 0.53% | viability, T/C (second compound 0.003 µM, first compound 1 µM) 0.45% | viability, T/C (second compound 0.003 µM, first compound 3.16 µM) 0.55% | viability, T/C (second compound 0.003 µM, first compound 10 µM) 1.03%
> 10000 nM: IC50 (second compound 30 pM) | IC50 (second compound 94.9 pM) | IC50 (second compound 0.0003 µM)
inactive: viability, T/C (second compound 30 pM, first compound 0.0316 µM) 98.3% | viability, T/C (second compound 30 pM, first compound 0.1 µM) 98.8% | viability, T/C (second compound 30 pM, first compound 0.316 µM) 96.3% | viability, T/C (second compound 30 pM, first compound 1 µM) 105% | viability, T/C (second compound 30 pM, first compound 3.16 µM) 102% | viability, T/C (second compound 30 pM, first compound 10 µM) 98.3% | viability, T/C (second compound 94.9 pM, first compound 0.0316 µM) 102% | viability, T/C (second compound 94.9 pM, first compound 0.1 µM) 100% | viability, T/C (second compound 94.9 pM, first compound 0.316 µM) 110% | viability, T/C (second compound 94.9 pM, first compound 1 µM) 101% | viability, T/C (second compound 94.9 pM, first compound 3.16 µM) 94.6% | viability, T/C (second compound 94.9 pM, first compound 10 µM) 88% | viability, T/C (second compound 0.0003 µM, first compound 0.0316 µM) 72.8% | viability, T/C (second compound 0.0003 µM, first compound 0.1 µM) 68.8% | viability, T/C (second compound 0.0003 µM, first compound 0.316 µM) 66.9% | viability, T/C (second compound 0.0003 µM, first compound 1 µM) 73.3% | viability, T/C (second compound 0.0003 µM, first compound 3.16 µM) 73.4% | viability, T/C (second compound 0.0003 µM, first compound 10 µM) 69.6% | viability, T/C (second compound 0.000949 µM, first compound 0.0316 µM) 59% | viability, T/C (second compound 0.000949 µM, first compound 0.1 µM) 58.7% | viability, T/C (second compound 0.000949 µM, first compound 0.316 µM) 55.9% | viability, T/C (second compound 0.000949 µM, first compound 1 µM) 57.4% | viability, T/C (second compound 0.000949 µM, first compound 3.16 µM) 50.7% | viability, T/C (second compound 0.000949 µM, first compound 10 µM) 45.8%
< 31.6 nM: IC50 (second compound 0.003 µM)
4450 nM: IC50 (second compound 0.000949 µM)
